From patent US7964531B2, “3-phenoxy-4-pyridazinol derivatives and herbicidal composition containing the same” (Mitsui Chemicals Agro, Inc., priority 2001, dated 2011)

Experiments:
Format in all cases: in vivo
Conditions in all cases: wettable powder applied 3 days after transplanting, judged after 25 days
Cyperus serotinus = assay: Test Example 1: herbicidal effects, paddy-field pot test
Outline: (§1)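 Paddy-soil pots sown with weed seeds, germinated Cyperus serotinus tubers and 2.2-leaf rice transplants, kept flooded in a greenhouse. Wettable powder diluted in water applied at set dosage 3 days after transplanting. Weed control and rice injury scored 25 days later on a 0-5 growth-inhibition scale.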

Scirpus joncoides = assay: as above
Outline: as §1

[1] = test system: annual broad-leaved weeds (Lindernia spp., Rotala indica); assay: as above
Outline: as §1

[2] = test system: barnyardgrass (Echinochloa oryzicola Vasing.); assay: as above
Outline: as §1

[3] = test system: transplanted paddy-field rice; assay: Test Example 1: crop injury against transplanted paddy-field rice
Outline: as §1

Structure (SMILES)	Herbicidal effects Cyperus serotinus (Cyperus serotinus; chemical dosage 12.5 g/a)	Herbicidal effects Cyperus serotinus (Cyperus serotinus; chemical dosage 25 g/a)	Herbicidal effects Scirpus joncoides (Scirpus joncoides; chemical dosage 12.5 g/a)	Herbicidal effects Scirpus joncoides (Scirpus joncoides; chemical dosage 25 g/a)	Herbicidal effects Broad leaf ([1]; chemical dosage 12.5 g/a)	Herbicidal effects Broad leaf ([1]; chemical dosage 25 g/a)	Herbicidal effects Barnyard grass ([2]; chemical dosage 12.5 g/a)	Herbicidal effects Barnyard grass ([2]; chemical dosage 25 g/a)	Crop injury against transplanted rice ([3]; chemical dosage 12.5 g/a)	Crop injury against transplanted rice ([3]; chemical dosage 25 g/a)	Herbicidal effects Cyperus serotinus (Cyperus serotinus; chemical dosage 10 g/a)	Herbicidal effects Cyperus serotinus (Cyperus serotinus; chemical dosage 20 g/a)	Herbicidal effects Scirpus joncoides (Scirpus joncoides; chemical dosage 10 g/a)	Herbicidal effects Scirpus joncoides (Scirpus joncoides; chemical dosage 20 g/a)	Herbicidal effects Broad leaf ([1]; chemical dosage 10 g/a)	Herbicidal effects Broad leaf ([1]; chemical dosage 20 g/a)	Herbicidal effects Barnyard grass ([2]; chemical dosage 10 g/a)	Herbicidal effects Barnyard grass ([2]; chemical dosage 20 g/a)	Crop injury against transplanted rice ([3]; chemical dosage 10 g/a)	Crop injury against transplanted rice ([3]; chemical dosage 20 g/a)
CCCc1ccccc1Oc1nnc(Cl)cc1O [Example 56]	4 (Growth inhibition rate; 71 to 90%)	4 (Growth inhibition rate; 71 to 90%)	2 (Growth inhibition rate; 31 to 50%)	3 (Growth inhibition rate; 51 to 70%)	4 (Growth inhibition rate; 71 to 90%)	5 (Growth inhibition rate; 91 to 100%)	0 (Growth inhibition rate; 0 to 10%)	0 (Growth inhibition rate; 0 to 10%)	0 (Growth inhibition rate; 0 to 10%)	0 (Growth inhibition rate; 0 to 10%)										
Cc1cccc(Oc2nnc(Cl)cc2O)c1C1CC1 [Example 166]											5 (Growth inhibition rate; 91 to 100%)	5 (Growth inhibition rate; 91 to 100%)	5 (Growth inhibition rate; 91 to 100%)	5 (Growth inhibition rate; 91 to 100%)	5 (Growth inhibition rate; 91 to 100%)	5 (Growth inhibition rate; 91 to 100%)	0 (Growth inhibition rate; 0 to 10%)	1 (Growth inhibition rate; 11 to 30%)	0 (Growth inhibition rate; 0 to 10%)	0 (Growth inhibition rate; 0 to 10%)
CC(C)c1cccc(Cl)c1Oc1nnc(Cl)cc1O [Example 18]	5 (Growth inhibition rate; 91 to 100%)	5 (Growth inhibition rate; 91 to 100%)	3 (Growth inhibition rate; 51 to 70%)	4 (Growth inhibition rate; 71 to 90%)	5 (Growth inhibition rate; 91 to 100%)	5 (Growth inhibition rate; 91 to 100%)	0 (Growth inhibition rate; 0 to 10%)	1 (Growth inhibition rate; 11 to 30%)	1 (Growth inhibition rate; 11 to 30%)	2 (Growth inhibition rate; 31 to 50%)										
CC1CCc2cccc(Oc3nnc(Cl)cc3O)c21 (stereo not drawn) [Example 172]											4 (Growth inhibition rate; 71 to 90%)	5 (Growth inhibition rate; 91 to 100%)	5 (Growth inhibition rate; 91 to 100%)	5 (Growth inhibition rate; 91 to 100%)	5 (Growth inhibition rate; 91 to 100%)	5 (Growth inhibition rate; 91 to 100%)	5 (Growth inhibition rate; 91 to 100%)	5 (Growth inhibition rate; 91 to 100%)	0 (Growth inhibition rate; 0 to 10%)	0 (Growth inhibition rate; 0 to 10%)
Cc1ccc(Cl)c(Oc2nnc(Cl)cc2O)c1 [Example 203]	5 (Growth inhibition rate; 91 to 100%)	5 (Growth inhibition rate; 91 to 100%)	5 (Growth inhibition rate; 91 to 100%)	5 (Growth inhibition rate; 91 to 100%)	5 (Growth inhibition rate; 91 to 100%)	5 (Growth inhibition rate; 91 to 100%)	1 (Growth inhibition rate; 11 to 30%)	2 (Growth inhibition rate; 31 to 50%)	0 (Growth inhibition rate; 0 to 10%)	0 (Growth inhibition rate; 0 to 10%)										
Cc1cc(C)cc(Oc2nnc(Cl)cc2O)c1 [Example 281]	5 (Growth inhibition rate; 91 to 100%)	5 (Growth inhibition rate; 91 to 100%)	2 (Growth inhibition rate; 31 to 50%)	3 (Growth inhibition rate; 51 to 70%)	5 (Growth inhibition rate; 91 to 100%)	5 (Growth inhibition rate; 91 to 100%)	0 (Growth inhibition rate; 0 to 10%)	0 (Growth inhibition rate; 0 to 10%)	0 (Growth inhibition rate; 0 to 10%)	0 (Growth inhibition rate; 0 to 10%)										
CCCS(=O)(=O)Oc1cc(Cl)nnc1Oc1ccccc1C1CC1 [Example 360]											5 (Growth inhibition rate; 91 to 100%)	5 (Growth inhibition rate; 91 to 100%)	5 (Growth inhibition rate; 91 to 100%)	5 (Growth inhibition rate; 91 to 100%)	5 (Growth inhibition rate; 91 to 100%)	5 (Growth inhibition rate; 91 to 100%)	3 (Growth inhibition rate; 51 to 70%)	4 (Growth inhibition rate; 71 to 90%)	0 (Growth inhibition rate; 0 to 10%)	0 (Growth inhibition rate; 0 to 10%)
Oc1cc(Cl)nnc1Oc1ccccc1C1CCC1 [Example 85]											5 (Growth inhibition rate; 91 to 100%)		3 (Growth inhibition rate; 51 to 70%)		4 (Growth inhibition rate; 71 to 90%)		2 (Growth inhibition rate; 31 to 50%)		0 (Growth inhibition rate; 0 to 10%)	
Cc1cc(C)c(Oc2nnc(Cl)cc2O)c(C2CC2)c1 [Example 318]											5 (Growth inhibition rate; 91 to 100%)	5 (Growth inhibition rate; 91 to 100%)	5 (Growth inhibition rate; 91 to 100%)	5 (Growth inhibition rate; 91 to 100%)	5 (Growth inhibition rate; 91 to 100%)	5 (Growth inhibition rate; 91 to 100%)	0 (Growth inhibition rate; 0 to 10%)	1 (Growth inhibition rate; 11 to 30%)	0 (Growth inhibition rate; 0 to 10%)	0 (Growth inhibition rate; 0 to 10%)
CC(C)(C)c1cccc(C2CC2)c1Oc1nnc(Cl)cc1O [Example 274]											4 (Growth inhibition rate; 71 to 90%)	4 (Growth inhibition rate; 71 to 90%)	3 (Growth inhibition rate; 51 to 70%)	4 (Growth inhibition rate; 71 to 90%)	5 (Growth inhibition rate; 91 to 100%)	5 (Growth inhibition rate; 91 to 100%)	3 (Growth inhibition rate; 51 to 70%)	3 (Growth inhibition rate; 51 to 70%)	0 (Growth inhibition rate; 0 to 10%)	0 (Growth inhibition rate; 0 to 10%)
Oc1cc(Cl)nnc1Oc1cccc2c1CCCC2 [Example 179]											5 (Growth inhibition rate; 91 to 100%)	5 (Growth inhibition rate; 91 to 100%)	3 (Growth inhibition rate; 51 to 70%)	4 (Growth inhibition rate; 71 to 90%)	4 (Growth inhibition rate; 71 to 90%)	4 (Growth inhibition rate; 71 to 90%)	0 (Growth inhibition rate; 0 to 10%)	1 (Growth inhibition rate; 11 to 30%)	0 (Growth inhibition rate; 0 to 10%)	0 (Growth inhibition rate; 0 to 10%)
Oc1cc(Cl)nnc1Oc1c(C2CC2)ccc2c1CCC2 [Example 307]											5 (Growth inhibition rate; 91 to 100%)	5 (Growth inhibition rate; 91 to 100%)	5 (Growth inhibition rate; 91 to 100%)	5 (Growth inhibition rate; 91 to 100%)	5 (Growth inhibition rate; 91 to 100%)	5 (Growth inhibition rate; 91 to 100%)	3 (Growth inhibition rate; 51 to 70%)	4 (Growth inhibition rate; 71 to 90%)	0 (Growth inhibition rate; 0 to 10%)	0 (Growth inhibition rate; 0 to 10%)
C=CCc1ccccc1Oc1nnc(Cl)cc1OC [Comparative compound, 3-(2-allylphenoxy)-6-chloro-4-methoxypyridazine, reference compound]		0 (Growth inhibition rate; 0 to 10%)		0 (Growth inhibition rate; 0 to 10%)		1 (Growth inhibition rate; 11 to 30%)		0 (Growth inhibition rate; 0 to 10%)		0 (Growth inhibition rate; 0 to 10%)										
